Results taken from article PMC5081312, “Antifouling phenyl ethers and other compounds from the invertebrates and their symbiotic fungi collected from the South China Sea” (AMB Express, 2016).
In brackets after ≈: the same amount, converted by molar mass. Where two headings read alike, the source gives them in different places.

Tests used:
[1] = Anti-larval settlement bioassay (antifouling activity and larval toxicity); type: in vivo; details: Balanus (Amphibalanus) amphitrite (barnacle cyprid larvae), in vivo, cyprids of B. amphitrite, 48 h at 28 °C, concentration where 50% of larvae were dead; for LC50 at 48 h: other: larvae immersed in test solution
Procedure: (§1) The newly released nauplii were screened with the aperture of 90 μm. The newly released nauplii were raised in filtered seawater (FSW) at 28 °C with mild aeration and fed with Chaetoceros gracilis Schutt at 1 × 10^6 cells ml^−1. The nauplius larvae transformed into cyprids (ready to attach and metamorphose) after 3.5 days. Newly transformed cyprids were kept in filtered seawater at 4 °C overnight before being used in the anti-larval settlement bioassay.
(§2) The antifouling activity was evaluated as larval settlement inhibition against the cyprids of barnacle B. amphitrite using 24-well polystyrene plates (Nunc, Naperville, CA, USA). Each compound was dissolved in a stock solution of DMSO with the concentration of 50 mg ml^−1, and then diluted 1000 times with FSW to 50 μg ml^−1. The compound was further transferred into FSW to make up the following test solution with the concentrations ranging from 25 to 0.50 μg ml^−1. One millilitre of the test solution and 16–20 larvae were allocated to each well of the 24-well plate. Each concentration had three replicate wells. The plates were cultivated in darkness for 48 h at 28 °C. The effects of the test compounds against the larvae settlement were determined by examining the plates under a dissecting microscope to check for (1) settled larvae (attached and metamorphosed), (2) swimming larvae, as well as (3) any possible toxic effects of the treatments (dead and paralyzed). The number of the settled larvae was expressed as a percentage of the total number of larvae per well. Each compound was tested by triplicate experiments using three different batches of larvae.
(§3) The EC50 and LC50 values of each compound were calculated according to the records of anti-larval settlement experiments. […] Then a concentration–response curve was plotted and a tread line was set up.

[2] = tested on: cyprids of barnacle B. amphitrite; assay: as above; type: in vivo; details: for EC50: read-out: EC50 (larval settlement inhibition); for LC50/EC50 ratio (therapeutic ratio): B. amphitrite cyprids, ratio >15 considered non-toxic
Procedure: as §1, §2, §3

in vivo = details: Artemia salina (brine shrimp), in vivo
Procedure: (§4) The brine shrimp lethality bioassay on Artemia salina was performed to predict the toxicity of the compounds. The test was conducted using 24-well plate as described previously according to standard protocols (Solis et al. [1993]; Meyer et al. [1982]). The wells containing FSW-DMSO (v/v 1:1000) served as the negative controls. Adriamycin was used as a positive control. There were three replicate wells per concentration, and each bioassay experiment had three replicates using three different batches of brine shrimp.

[3] = tested on: brine shrimps Artemia salina; assay: in vivo; details: read-out: LC50 (brine shrimp lethality); Artemia salina
Procedure: as §4

[4] = tested on: cyprids of barnacle B. amphitrite; design: method as in Jacobson and Willingham [2000]; details: concentration used for positive control; ref Jacobson and Willingham [2000]; cited from earlier work
[5] = Amphibalanus amphitrite, cyprids of B. amphitrite, 48 h at 28 °C, concentration where 50% of larvae were inhibited to settle vs negative control
[6] = Amphibalanus amphitrite, 48 h, cyprids of B. amphitrite, 48 h at 28 °C, concentration where 50% of larvae were inhibited to settle vs negative control
[7] = LC50 (brine shrimp lethality), Artemia salina
[8] = cyprids of B. amphitrite, 48 h at 28 °C, concentration where 50% of larvae were inhibited to settle vs negative control

Structure (SMILES)	LC50 at 48 h [1]	EC50 [2, 6]	LC50/EC50 ratio (therapeutic ratio) [2]	LC50 (in vivo; [7])	further results
COC(=O)c1c(C)c(Br)c(Oc2c(Br)c(C)c(Br)c(O)c2Br)c(Br)c1O [compound 14, 2,6,2′,4′,6′-Pentabromo-4-methoxycarbonyl-diorcinol]					LC50 [1]: 29.3 µM; EC50 [2, 5]: 1.17 µM; LC50 (in vivo): > 73.3 µM
COc1cc(C)cc(Oc2cc(C)cc(OC)c2OC)c1O [compound 6, Cordyol D]	> 164 µM	18.2 µM	>9.01	164 µM	
COC(=O)c1c(C)cc(Oc2cc(C)cc(O)c2)cc1O [compound 3, 4-Methoxyacyl-diorcinol]	> 174 µM	< 10 µM		≥ 34.7 µM	EC50 [2, 8]: 7.43 µM; LC50 [3]: 34.7 µM
COc1cccc2c1C(=O)c1c(O)c3c(c(O)c1C2=O)C[C@@](O)(C(=O)CO)C[C@@H]3O[C@H]1C[C@H](N)[C@H](O)[C@H](C)O1 [Adriamycin, reference compound]					LC50 (in vivo): 12 µM
Cc1cc(O)cc(Oc2cc(C)cc(OC(=O)c3ccccc3)c2)c1 [compound 10, 3-O-benzoyl-diorcinol]	> 150 µM	12.6 µM	>11.9	> 150 µM	
Cc1cc(O)cc(Oc2cc(C)cc(OC(=O)c3ccc(Br)cc3)c2)c1 [compound 15, 3-O-p-Bromobenzoyl-diorcinol]	60.5 µM	2.42 µM		> 121 µM	
COc1cc(C)cc(Oc2cc(C)cc(OC)c2O)c1O [compound 5, 3,3′-O-dimethylviolaceol-I]	> 172 µM	18.4 µM	>9.35	172 µM	
Cc1cc(O)cc(Oc2cc(C)cc(O)c2)c1 [compound 1, Diorcinol]	> 217 µM	32.6 µM	>6.67	126 µM	
CC1=CC(=O)c2c(C)cc3oc(=O)c(C)c-3cc21 [compound 21, Ketolactone]	> 208 µM	> 104 µM			
CCCCCCCCn1sc(Cl)c(Cl)c1=O [Sea-Nine 211™, reference compound]			20.3		LC50 ([2]; cyprids of B. amphitrite, 48 h at 28 °C, concentration where 50% of larvae were dead): 88.7 µM; EC50 [2, 8]: 4.36 µM; EC50 value against B. amphitrite [4]: 1.23 µg/mL (≈ 4.36 µM)
Cc1c(Br)c(O)c(Br)c(Oc2c(Br)c(C)c(Br)c(O)c2Br)c1Br [compound 13, 2,4,6,2′,4′,6′-Hexabromo-diorcinol]					LC50 [1]: 22 µM; EC50 [2, 5]: 0.71 µM; LC50 (in vivo): 35.6 µM
CCCCCOc1cc(C)cc(Oc2cc(C)cc(OCCCCC)c2)c1 [compound 12, 3,3′-O-dipentyl-diorcinol]	> 135 µM	12.2 µM	>11.1		
Cc1cc(O)cc(Oc2cc(C)cc(O)c2O)c1 [compound 2, Cordyol C]	> 203 µM	57.3 µM	>3.54	126 µM	
CO[C@H]1[C@@H](O)CC/C(C)=C/[C@H]2C=C(C)[C@@H](C)[C@H]3[C@H](CC(C)C)NC(=O)[C@]32C(=O)C[C@@H]1O [compound 46, Aspochalasin K]			>6.65		LC50 [1]: > 115 µM; EC50 [2, 5]: 17.3 µM
C=CC(C)(C)c1[nH]c2c(CC=C(C)C)cc(CC=C(C)C)cc2c1C[C@@H]1NC(=O)[C@H](C)NC1=O [compound 44, Echinulin]					LC50 [1]: > 108 µM; EC50 ([2]; Amphibalanus amphitrite, 48 h): > 54.2 µM
COc1cc(C)cc(Oc2cc(C)cc(O)c2)c1 [compound 4, Cordyol E]	> 205 µM	31 µM	>6.61	41 µM	
Cc1cc(C=O)c2c(C)ccc(C(C)C)cc1-2 [compound 16, 1-Formylguaiazulene]	221 µM	42 µM			
CCCOc1cc(C)cc(Oc2cc(C)cc(O)c2)c1 [compound 7, 3-O-propyl-diorcinol]	112 µM	< 10 µM	11.4		EC50 [2, 8]: 9.82 µM
